Results: patent US12559529B2, “NPY2 receptor agonists” (Boehringer Ingelheim International GmbH, priority 2019, dated 2026)
pKi: −log10 of the molar value. *1 amine or outer side, *2 acyl side, *3 side chain or, on linkers, in order; H or OH if unused. Where a SMILES comes first, the peptide text is derived from it. Side-chain parts run from the residue outwards. The star is where a group is joined. C18 diacid = O=C(O)CCCCCCCCCCCCCCCCC(=O)*; γGlu = O=C(O)[C@H](CCC(=O)[*:2])N[*:1]; Isovaleryl = CC(C)CC(=O)*; AEEA = NCCOCCOCC(=O)O

Molecular target: T1, Human Neuropeptide Y2 Receptor (Homo sapiens, UniProt P49146)
T1 construct: purchased CHEMICON HTS066M
T1 sequence (P49146 1-381): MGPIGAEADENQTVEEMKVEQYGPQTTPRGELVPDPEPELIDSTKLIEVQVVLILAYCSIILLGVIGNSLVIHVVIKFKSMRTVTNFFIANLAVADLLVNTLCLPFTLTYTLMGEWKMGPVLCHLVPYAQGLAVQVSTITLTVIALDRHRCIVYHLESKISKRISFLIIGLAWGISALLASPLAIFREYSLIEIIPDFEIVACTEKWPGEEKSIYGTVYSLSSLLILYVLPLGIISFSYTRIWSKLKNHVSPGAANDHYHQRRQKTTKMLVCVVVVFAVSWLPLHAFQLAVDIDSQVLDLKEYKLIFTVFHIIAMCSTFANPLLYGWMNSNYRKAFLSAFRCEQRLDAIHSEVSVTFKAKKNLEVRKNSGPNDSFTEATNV
Assay: Radioligand binding competition assay (RLB)
Details: Table 3; human 125I-PYY (1-36) 0.02 nM, Y2 receptor membranes; read-out: Ki
In short: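 IC50 values come from nonlinear regression of sigmoidal dose-response curves of filter-bound radioactivity. Peptides competed with radioligand at human Y2 receptor membranes (0.5 μg protein/well) for 2 h at room temperature in pH 7.4 HEPES buffer containing Mg2+, Ca2+ and 0.2% ovalbumin.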

Q: How did the pKi turn out when CC(C)CC(=O)N[C@@H](C)C(=O)N1CCC[C@H]1C(=O)N[C@@H](CCC(=O)O)C(=O)N[C@@H](CCCCNC(=O)COCCOCCNC(=O)COCCOCCNC(=O)CC[C@H](NC(=O)CCCCCCCCCCCCCCCCC(=O)O)C(=O)O)C(=O)N1CCC[C@H]1C(=O)N[C@@H](CCC(=O)O)C(=O)N[C@@H](CCC(=O)O)C(=O)N[C@@H](C)C(=O)N[C@@H](C)C(=O)N[C@@H](CO)C(=O)N1CCC[C@H]1C(=O)N[C@@H](CCC(=O)O)C(=O)N[C@@H](CCC(=O)O)C(=O)N[C@@H](CC(C)C)C(=O)N[C@@H](CCC(N)=O)C(=O)N[C@@H](CCCNC(=N)N)C(=O)N[C@@H](Cc1ccc(O)cc1)C(=O)N[C@@H](CCC(=O)O)C(=O)N[C@H](C(=O)N[C@@H](CO)C(=O)N[C@@H](CC(C)C)C(=O)N[C@@H](CCCNC(=N)N)C(=O)N[C@@H](Cc1c[nH]cn1)C(=O)N[C@@H](Cc1ccc(O)cc1)C(=O)N[C@@H](Cc1ccc(O)cc1)C(=O)N[C@@H](CC(N)=O)C(=O)N[C@@H](Cc1c[nH]c2ccccc12)C(=O)N[C@@H](CC(C)C)C(=O)N[C@H](C(=O)N[C@@H](CCCNC(=N)N)C(=O)N[C@@H](CCC(N)=O)C(=O)N[C@@H](CCCNC(=N)N)C(=O)N[C@@H](Cc1ccc(O)cc1)C(N)=O)[C@@H](C)O)C(C)C [Compound 70, N{alpha-4}-(3-methylbutanoyl)-N{epsilon-7}-[2-(2-{2-[2-(2-{2-[(4S)-4-carboxy-4-(17-carboxyheptadecanamido)butanamido]ethoxy}ethoxy)acetamido]ethoxy}ethoxy)acetamido]-[4A,7K,9E,11A,18Q,21E,22V,28Y,30W,31L]hPYY (4-36)] (Isovaleryl-APEK([AEEA-AEEA-γGlu-C18 diacid])PEEAASPEELQRYEVSLRHYYNWLTRQRY-NH2) was run?
A: Its pKi is 8.31.

Q: CC(C)CC(=O)N[C@@H](C)C(=O)N1CCC[C@H]1C(=O)N[C@@H](CCC(=O)O)C(=O)N[C@@H](CCCCNC(=O)COCCOCCNC(=O)COCCOCCNC(=O)CC[C@H](NC(=O)CCCCCCCCCCCCCCCCC(=O)O)C(=O)O)C(=O)N1CCC[C@H]1C(=O)N[C@@H](CCC(=O)O)C(=O)N[C@@H](CCC(=O)O)C(=O)N[C@@H](CCC(=O)O)C(=O)N[C@@H](C)C(=O)N[C@@H](CO)C(=O)N1CCC[C@H]1C(=O)N[C@@H](CO)C(=O)N[C@@H](CCC(=O)O)C(=O)N[C@@H](CC(C)C)C(=O)N[C@@H](CCC(N)=O)C(=O)N[C@@H](CCCNC(=N)N)C(=O)N[C@@H](Cc1ccc(O)cc1)C(=O)N[C@@H](Cc1ccc(O)cc1)C(=O)N[C@H](C(=O)N[C@@H](CO)C(=O)N[C@@H](CC(C)C)C(=O)N[C@@H](CCCNC(=N)N)C(=O)N[C@@H](Cc1c[nH]cn1)C(=O)N[C@@H](Cc1ccc(O)cc1)C(=O)N[C@@H](Cc1ccc(O)cc1)C(=O)N[C@@H](CC(N)=O)C(=O)N[C@@H](Cc1c[nH]c2ccccc12)C(=O)N[C@@H](CC(C)C)C(=O)N[C@H](C(=O)N[C@@H](CCCNC(=N)N)C(=O)N[C@@H](CCC(N)=O)C(=O)N[C@@H](CCCNC(=N)N)C(=O)N[C@@H](Cc1ccc(O)cc1)C(N)=O)[C@@H](C)O)C(C)C [Compound 71, N{alpha-4}-(3-methylbutanoyl)-N{epsilon-7}-[2-(2-{2-[2-(2-{2-[(4S)-4-carboxy-4-(17-carboxyheptadecanamido)butanamido]ethoxy}ethoxy)acetamido]ethoxy}ethoxy)acetamido]-[4A,7K,9E,11E,15S,18Q,22V,28Y,30W,31L]hPYY (4-36)] (Isovaleryl-APEK([AEEA-AEEA-γGlu-C18 diacid])PEEEASPSELQRYYVSLRHYYNWLTRQRY-NH2) was tested. Which pKi did it give?
A: Its pKi is 8.28.

Q: CC(C)CC(=O)N[C@@H](C)C(=O)N1CCC[C@H]1C(=O)N[C@@H](CCC(=O)O)C(=O)N[C@@H](CCCCNC(=O)COCCOCCNC(=O)COCCOCCNC(=O)CC[C@H](NC(=O)CCCCCCCCCCCCCCCCC(=O)O)C(=O)O)C(=O)N1CCC[C@H]1C(=O)N[C@@H](CCC(=O)O)C(=O)N[C@@H](CCC(=O)O)C(=O)N[C@@H](CC(=O)O)C(=O)N[C@@H](C)C(=O)N[C@@H](CO)C(=O)N[C@@H](CCC(=O)O)C(=O)N[C@@H](CCC(=O)O)C(=O)N[C@@H](CCC(=O)O)C(=O)N[C@@H](CC(C)C)C(=O)N[C@@H](CCC(N)=O)C(=O)N[C@@H](CCCNC(=N)N)C(=O)N[C@@H](Cc1ccc(O)cc1)C(=O)N[C@@H](Cc1ccc(O)cc1)C(=O)N[C@H](C(=O)N[C@@H](CCC(=O)O)C(=O)N[C@@H](CC(C)C)C(=O)N[C@@H](CCCNC(=N)N)C(=O)N[C@@H](Cc1c[nH]cn1)C(=O)N[C@@H](Cc1ccc(O)cc1)C(=O)N[C@@H](Cc1ccc(O)cc1)C(=O)N[C@@H](CC(N)=O)C(=O)N[C@@H](Cc1c[nH]c2ccccc12)C(=O)N[C@@H](CC(C)C)C(=O)N[C@H](C(=O)N[C@@H](CCCNC(=N)N)C(=O)N[C@@H](CCC(N)=O)C(=O)N[C@@H](CCCNC(=N)N)C(=O)N[C@@H](Cc1ccc(O)cc1)C(N)=O)[C@@H](C)O)C(C)C [Compound 77, N{alpha-4}-(3-methylbutanoyl)-N{epsilon-7}-[2-(2-{2-[2-(2-{2-[(4S)-4-carboxy-4-(17-carboxyheptadecanamido)butanamido]ethoxy}ethoxy)acetamido]ethoxy}ethoxy)acetamido]-[4A,7K,9E,14E,18Q,22V,23E,28Y,30W,31L]hPYY (4-36)] was tested. Which pKi did it give?
A: The pKi was 8.21.

Q: CC(C)CC(=O)N[C@@H](C)C(=O)N1CCC[C@H]1C(=O)N[C@@H](CCC(=O)O)C(=O)N[C@@H](CCCCNC(=O)COCCOCCNC(=O)COCCOCCNC(=O)CC[C@H](NC(=O)CCCCCCCCCCCCCCCCC(=O)O)C(=O)O)C(=O)N1CCC[C@H]1C(=O)N[C@@H](CCC(=O)O)C(=O)N[C@@H](CCC(=O)O)C(=O)N[C@@H](CCC(=O)O)C(=O)N[C@@H](C)C(=O)N[C@@H](CO)C(=O)N1CCC[C@H]1C(=O)N[C@@H](CCC(=O)O)C(=O)N[C@@H](CCC(=O)O)C(=O)N[C@H](C(=O)N[C@@H](CCC(N)=O)C(=O)N[C@@H](CCCNC(=N)N)C(=O)N[C@@H](Cc1ccc(O)cc1)C(=O)N[C@@H](Cc1ccc(O)cc1)C(=O)N[C@H](C(=O)N[C@@H](CO)C(=O)N[C@@H](CC(C)C)C(=O)N[C@@H](CCCNC(=N)N)C(=O)N[C@@H](Cc1c[nH]cn1)C(=O)N[C@@H](Cc1ccc(O)cc1)C(=O)N[C@@H](Cc1ccc(O)cc1)C(=O)N[C@@H](CC(N)=O)C(=O)N[C@@H](Cc1c[nH]c2ccccc12)C(=O)N[C@@H](CC(C)C)C(=O)N[C@H](C(=O)N[C@@H](CCCNC(=N)N)C(=O)N[C@@H](CCC(N)=O)C(=O)N[C@@H](CCCNC(=N)N)C(=O)N[C@@H](Cc1ccc(O)cc1)C(N)=O)[C@@H](C)O)C(C)C)[C@@H](C)O [Compound 80, N{alpha-4}-(3-methylbutanoyl)-N{epsilon-7}-[2-(2-{2-[2-(2-{2-[(4S)-4-carboxy-4-(17-carboxyheptadecanamido)butanamido]ethoxy}ethoxy)acetamido]ethoxy}ethoxy)acetamido]-[4A,7K,9E,11E,17T,18Q,22V,28Y,30W,31L]hPYY (4-36)] was tested. Which pKi did it give?
A: Its pKi is 8.16.

Q: CC(C)CC(=O)N[C@@H](C)C(=O)N1CCC[C@H]1C(=O)N[C@@H](CCC(=O)O)C(=O)N[C@@H](CCCCNC(=O)COCCOCCNC(=O)COCCOCCNC(=O)CC[C@H](NC(=O)CCCCCCCCCCCCCCCCC(=O)O)C(=O)O)C(=O)N1CCC[C@H]1C(=O)N[C@@H](CCC(=O)O)C(=O)N[C@@H](CCC(=O)O)C(=O)N[C@@H](CC(=O)O)C(=O)N[C@@H](C)C(=O)N[C@@H](CO)C(=O)N1CCC[C@H]1C(=O)N[C@@H](CCC(=O)O)C(=O)N[C@@H](CCC(=O)O)C(=O)N[C@@H](CC(C)C)C(=O)N[C@@H](CCC(N)=O)C(=O)N[C@@H](CCCNC(=N)N)C(=O)N[C@@H](Cc1ccc(O)cc1)C(=O)N[C@@H](C)C(=O)N[C@H](C(=O)N[C@@H](CO)C(=O)N[C@@H](CC(C)C)C(=O)N[C@@H](CCCNC(=N)N)C(=O)N[C@@H](Cc1c[nH]cn1)C(=O)N[C@@H](Cc1ccc(O)cc1)C(=O)N[C@@H](Cc1ccc(O)cc1)C(=O)N[C@@H](CC(N)=O)C(=O)N[C@@H](Cc1c[nH]c2ccccc12)C(=O)N[C@@H](CC(C)C)C(=O)N[C@H](C(=O)N[C@@H](CCCNC(=N)N)C(=O)N[C@@H](CCC(N)=O)C(=O)N[C@@H](CCCNC(=N)N)C(=O)N[C@@H](Cc1ccc(O)cc1)C(N)=O)[C@@H](C)O)C(C)C [Compound 85, N{alpha-4}-(3-methylbutanoyl)-N{epsilon-7}-[2-(2-{2-[2-(2-{2-[(4S)-4-carboxy-4-(17-carboxyheptadecanamido)butanamido]ethoxy}ethoxy)acetamido]ethoxy}ethoxy)acetamido]-[4A,7K,9E,18Q,21A,22V,28Y,30W,31L]hPYY (4-36)] was tested. Which pKi did it give?
A: Its pKi is 8.81.
